In PubChem BioAssay AID270 (DTP/NCI, 2004):
Values joined by “and” are separate entries in the source; they are usually repeats but may differ in a detail not shown here. Identical values can stand only once. Results filed as inconclusive are left out.

System: BDF1 mice, s.c. Lewis lung carcinoma, T/C %
Assay: NCI In Vivo Anticancer Drug Screen. Data for tumor model Lewis Lung Carcinoma (subcutaneous) in B6D2F1 (BDF1) mice
In short: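 Antitumor effect in vivo is scored from survival or tumor burden, reported as treated relative to vehicle controls.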

In the case of `O=C1C(=O)c2ccccc2C(O)=C1CC=C(Cl)Cl`, the T/C (endpoint: mean tumor weight, dose: 12.5 mg/kg/injection, schedule: Q01DX011 (ip), vehicle: carboxymethylcellulose (CMC), higher = larger tumour) is reported as 88 % of control, the T/C (endpoint: mean tumor weight, dose: 25.0 mg/kg/injection, schedule: Q01DX011 (ip), vehicle: carboxymethylcellulose (CMC), higher = larger tumour) is reported as 76 % of control and the T/C (endpoint: mean tumor weight, dose: 50.0 mg/kg/injection, schedule: Q01DX011 (ip), vehicle: carboxymethylcellulose (CMC), higher = larger tumour) is reported as 90 % of control. For the same molecule, the T/C (endpoint: mean tumor weight, dose: 50.0 mg/kg/injection, schedule: Q01DX011 (oral), vehicle: carboxymethylcellulose (CMC), higher = larger tumour) was 84 % of control, the T/C (endpoint: median survival time, dose: 12.5 mg/kg/injection, schedule: Q01DX009 (ip), vehicle: Klucel (hydroxypropylcellulose) (HPC), higher = longer survival) was 89 % of control and 100 % of control and 106 % of control and the T/C (endpoint: median survival time, dose: 25.0 mg/kg/injection, schedule: Q01DX009 (ip), vehicle: Klucel (hydroxypropylcellulose) (HPC), higher = longer survival) was 86 % of control and 94 % of control and 110 % of control. The T/C (endpoint: median survival time, dose: 34.0 mg/kg/injection, schedule: Q01DX009 (ip), vehicle: water, higher = longer survival) was 113 % of control, the T/C (endpoint: median survival time, dose: 50.0 mg/kg/injection, schedule: Q01DX009 (ip), vehicle: Klucel (hydroxypropylcellulose) (HPC), higher = longer survival) was 103 % of control and 110 % of control and the T/C (endpoint: median survival time, dose: 50.0 mg/kg/injection, schedule: Q01DX009 (ip), vehicle: water, higher = longer survival) was 110 % of control. For the same molecule, the T/C (endpoint: median survival time, dose: 100.0 mg/kg/injection, schedule: Q01DX009 (ip), vehicle: Klucel (hydroxypropylcellulose) (HPC), higher = longer survival) was 117 % of control, the T/C (endpoint: median tumor weight (est.), dose: 12.5 mg/kg/injection, schedule: Q01DX009 (ip), vehicle: Klucel (hydroxypropylcellulose) (HPC), higher = larger tumour) was 93 % of control and 99 % of control and the T/C (endpoint: median tumor weight (est.), dose: 25.0 mg/kg/injection, schedule: Q01DX009 (ip), vehicle: Klucel (hydroxypropylcellulose) (HPC), higher = larger tumour) was 78 % of control and 86 % of control. For the same molecule, the T/C (endpoint: median tumor weight (est.), dose: 50.0 mg/kg/injection, schedule: Q01DX009 (ip), vehicle: Klucel (hydroxypropylcellulose) (HPC), higher = larger tumour) was 87 % of control and the T/C (endpoint: median tumor weight (est.), dose: 100.0 mg/kg/injection, schedule: Q01DX009 (ip), vehicle: Klucel (hydroxypropylcellulose) (HPC), higher = larger tumour) was 70 % of control.
